Measurements: ChEMBL document CHEMBL4330088, “Targeting the immunity protein kinases for immuno-oncology” (Eur J Med Chem, 2019)

Columns and labels:
Homo sapiens [1] = species on record: Homo sapiens; test: Selectivity ratio of IC50 for PI3Kdelta (unknown origin) to IC50 for PI3Kgamma (unknown origin)
Homo sapiens [2] = species on record: Homo sapiens; test: Selectivity ratio of IC50 for PI3Kdelta (unknown origin) to IC50 for human N-terminal His-tagged PI3Kalpha/p85alpha
Homo sapiens [3] = species on record: Homo sapiens; test: Selectivity ratio of IC50 for PI3Kdelta (unknown origin) to IC50 for human full length recombinant N-terminal His-tagged PI3Kbeta/p85alpha
[4] = target: PI3-kinase p110-alpha/p85-alpha (Homo sapiens, UniProt P42336); test: Inhibition of human N-terminal His-tagged PI3Kalpha/p85alpha expressed in Spodoptera frugiperda using phosphatidylinositol as substrate
[5] = target: Phosphatidylinositol 4,5-bisphosphate 3-kinase catalytic subunit gamma isoform (Homo sapiens, UniProt P48736); test: Inhibition of PI3Kgamma (unknown origin)
PI3K p110 beta/p85 alpha = PI3K p110 beta/p85 alpha (Homo sapiens, UniProt P42338); test: Inhibition of human full length recombinant N-terminal His-tagged PI3Kbeta/p85alpha expressed in baculovirus infected Sf21 insect cells
[6] = Half life of compound in human PBMC; format: ADME, cell-based
[7] = target: MAP kinase-interacting serine/threonine-protein kinase 1/2 (Homo sapiens) (UniProt Q9HBH9+Q9BUB5); test: Inhibition of MNK in human PBMC assessed as reduction in eIF4E phosphorylation at 200 mg after 24 hrs relative to control
[8] = target: T1, Interleukin-1 receptor-associated kinase 4 (Homo sapiens, UniProt Q9NWZ3); test: Inhibition of IRAK4 (unknown origin)
T1 sequence (Q9NWZ3 whole entry): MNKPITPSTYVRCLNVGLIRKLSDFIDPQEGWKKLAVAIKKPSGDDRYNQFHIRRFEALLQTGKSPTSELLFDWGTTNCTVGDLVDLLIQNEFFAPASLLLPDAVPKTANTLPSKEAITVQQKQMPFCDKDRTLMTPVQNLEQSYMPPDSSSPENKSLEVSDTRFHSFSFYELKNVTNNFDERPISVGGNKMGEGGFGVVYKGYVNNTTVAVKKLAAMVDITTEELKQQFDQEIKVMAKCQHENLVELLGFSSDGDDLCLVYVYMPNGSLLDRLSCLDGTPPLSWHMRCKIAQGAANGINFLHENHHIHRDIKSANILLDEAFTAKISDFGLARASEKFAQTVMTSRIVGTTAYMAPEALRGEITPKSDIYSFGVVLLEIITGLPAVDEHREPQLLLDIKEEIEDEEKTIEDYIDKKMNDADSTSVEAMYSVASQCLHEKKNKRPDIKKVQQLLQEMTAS

[9] = target: Non-receptor tyrosine-protein kinase TYK2 (Homo sapiens, UniProt P29597); test: Inhibition of TYK2 in human Jurkat cells assessed as reduction in IFN-alpha stimulated TYK2 phosphorylation by […] Western blot analysis; format: cell-based
[10] = target: T2, Tyrosine-protein kinase JAK3 (Homo sapiens, UniProt P52333); test: Inhibition of JAK3 in human Jurkat cells assessed as reduction in IFN-alpha stimulated JAK3 phosphorylation by […] Western blot analysis; format: cell-based
T2 sequence (P52333 whole entry): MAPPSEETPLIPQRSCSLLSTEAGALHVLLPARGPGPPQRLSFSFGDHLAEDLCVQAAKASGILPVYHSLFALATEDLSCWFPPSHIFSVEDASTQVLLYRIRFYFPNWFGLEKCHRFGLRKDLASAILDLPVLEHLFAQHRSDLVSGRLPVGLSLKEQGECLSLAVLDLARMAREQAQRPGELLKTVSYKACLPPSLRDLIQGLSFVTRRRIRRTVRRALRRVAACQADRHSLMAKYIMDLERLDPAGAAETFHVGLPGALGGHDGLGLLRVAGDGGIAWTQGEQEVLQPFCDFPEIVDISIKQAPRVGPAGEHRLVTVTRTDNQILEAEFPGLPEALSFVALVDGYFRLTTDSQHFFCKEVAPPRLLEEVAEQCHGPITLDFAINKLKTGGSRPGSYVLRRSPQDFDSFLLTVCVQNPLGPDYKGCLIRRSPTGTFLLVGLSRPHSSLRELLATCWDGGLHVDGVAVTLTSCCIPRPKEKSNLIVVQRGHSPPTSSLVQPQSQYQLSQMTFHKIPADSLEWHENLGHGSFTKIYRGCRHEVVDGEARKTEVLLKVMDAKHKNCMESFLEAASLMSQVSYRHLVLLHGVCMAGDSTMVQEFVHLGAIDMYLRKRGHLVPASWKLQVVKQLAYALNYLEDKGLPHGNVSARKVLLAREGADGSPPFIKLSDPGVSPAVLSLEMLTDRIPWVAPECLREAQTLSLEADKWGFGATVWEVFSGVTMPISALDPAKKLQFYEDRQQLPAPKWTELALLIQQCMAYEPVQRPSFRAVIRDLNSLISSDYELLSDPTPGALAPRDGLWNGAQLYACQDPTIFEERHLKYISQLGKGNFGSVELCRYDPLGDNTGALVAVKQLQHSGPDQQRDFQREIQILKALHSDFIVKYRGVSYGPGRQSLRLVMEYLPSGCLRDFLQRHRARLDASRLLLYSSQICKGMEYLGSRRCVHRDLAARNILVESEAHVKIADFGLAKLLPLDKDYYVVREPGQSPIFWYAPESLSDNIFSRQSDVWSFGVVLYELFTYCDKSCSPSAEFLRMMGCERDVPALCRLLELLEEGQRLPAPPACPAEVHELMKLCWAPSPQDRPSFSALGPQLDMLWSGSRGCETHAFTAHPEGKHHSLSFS

[11] = target: Tyrosine-protein kinase JAK1 (Homo sapiens, UniProt P23458); test: Inhibition of JAK1 in human Jurkat cells assessed as reduction in IFN-alpha stimulated JAK1 phosphorylation by […] Western blot analysis; format: cell-based

Chain of PI3K p110 beta/p85 alpha (P27986 whole entry): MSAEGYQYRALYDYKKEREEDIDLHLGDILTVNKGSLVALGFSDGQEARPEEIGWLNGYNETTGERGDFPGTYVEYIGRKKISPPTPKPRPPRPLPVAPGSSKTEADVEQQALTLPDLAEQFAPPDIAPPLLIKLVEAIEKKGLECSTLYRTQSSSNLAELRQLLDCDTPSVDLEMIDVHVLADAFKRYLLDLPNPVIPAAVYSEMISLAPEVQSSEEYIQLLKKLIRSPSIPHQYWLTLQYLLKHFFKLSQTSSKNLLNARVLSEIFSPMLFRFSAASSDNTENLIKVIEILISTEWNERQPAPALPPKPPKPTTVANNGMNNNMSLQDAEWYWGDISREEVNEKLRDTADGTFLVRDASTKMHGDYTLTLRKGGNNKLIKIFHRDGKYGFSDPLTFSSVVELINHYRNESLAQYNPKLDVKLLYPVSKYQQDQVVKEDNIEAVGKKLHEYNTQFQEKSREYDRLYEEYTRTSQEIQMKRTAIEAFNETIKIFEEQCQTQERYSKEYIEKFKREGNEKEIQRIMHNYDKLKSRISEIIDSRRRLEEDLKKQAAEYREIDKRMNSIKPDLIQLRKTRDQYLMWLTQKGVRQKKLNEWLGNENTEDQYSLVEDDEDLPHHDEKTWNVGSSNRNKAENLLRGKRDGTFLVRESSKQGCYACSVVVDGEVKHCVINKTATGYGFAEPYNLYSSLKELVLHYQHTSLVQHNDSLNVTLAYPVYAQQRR
Chain of PI3K p110 beta/p85 alpha (P42338 whole entry): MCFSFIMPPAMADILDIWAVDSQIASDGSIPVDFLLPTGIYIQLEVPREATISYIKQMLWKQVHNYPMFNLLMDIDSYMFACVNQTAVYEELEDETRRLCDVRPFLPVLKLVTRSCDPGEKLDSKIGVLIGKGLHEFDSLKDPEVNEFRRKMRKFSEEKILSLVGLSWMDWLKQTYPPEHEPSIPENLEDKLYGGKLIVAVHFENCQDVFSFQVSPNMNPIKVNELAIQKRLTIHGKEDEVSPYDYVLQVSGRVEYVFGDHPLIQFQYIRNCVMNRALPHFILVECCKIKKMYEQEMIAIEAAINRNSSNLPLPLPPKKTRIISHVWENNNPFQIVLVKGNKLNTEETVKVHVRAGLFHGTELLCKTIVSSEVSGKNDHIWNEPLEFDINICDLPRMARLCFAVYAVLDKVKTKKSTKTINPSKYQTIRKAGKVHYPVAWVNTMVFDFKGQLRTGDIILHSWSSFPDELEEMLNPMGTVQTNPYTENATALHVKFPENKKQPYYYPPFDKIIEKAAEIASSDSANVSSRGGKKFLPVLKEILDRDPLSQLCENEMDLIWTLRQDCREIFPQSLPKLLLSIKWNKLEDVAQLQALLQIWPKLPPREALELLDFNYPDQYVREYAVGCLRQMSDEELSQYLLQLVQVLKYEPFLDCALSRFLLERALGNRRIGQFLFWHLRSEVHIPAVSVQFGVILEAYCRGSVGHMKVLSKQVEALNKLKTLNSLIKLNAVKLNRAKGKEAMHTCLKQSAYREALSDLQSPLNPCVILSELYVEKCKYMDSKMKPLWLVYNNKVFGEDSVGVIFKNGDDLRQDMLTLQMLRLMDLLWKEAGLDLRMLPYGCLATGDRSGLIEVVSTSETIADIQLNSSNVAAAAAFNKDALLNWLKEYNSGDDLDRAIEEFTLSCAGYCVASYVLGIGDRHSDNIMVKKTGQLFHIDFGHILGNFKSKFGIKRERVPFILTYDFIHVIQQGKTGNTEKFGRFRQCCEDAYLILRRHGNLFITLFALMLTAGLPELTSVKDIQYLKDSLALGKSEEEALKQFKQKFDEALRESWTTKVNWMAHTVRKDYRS
Chain of Phosphatidylinositol 4,5-bisphosphate 3-kinase catalytic subunit gamma isoform (P48736 whole entry, canonical isoform): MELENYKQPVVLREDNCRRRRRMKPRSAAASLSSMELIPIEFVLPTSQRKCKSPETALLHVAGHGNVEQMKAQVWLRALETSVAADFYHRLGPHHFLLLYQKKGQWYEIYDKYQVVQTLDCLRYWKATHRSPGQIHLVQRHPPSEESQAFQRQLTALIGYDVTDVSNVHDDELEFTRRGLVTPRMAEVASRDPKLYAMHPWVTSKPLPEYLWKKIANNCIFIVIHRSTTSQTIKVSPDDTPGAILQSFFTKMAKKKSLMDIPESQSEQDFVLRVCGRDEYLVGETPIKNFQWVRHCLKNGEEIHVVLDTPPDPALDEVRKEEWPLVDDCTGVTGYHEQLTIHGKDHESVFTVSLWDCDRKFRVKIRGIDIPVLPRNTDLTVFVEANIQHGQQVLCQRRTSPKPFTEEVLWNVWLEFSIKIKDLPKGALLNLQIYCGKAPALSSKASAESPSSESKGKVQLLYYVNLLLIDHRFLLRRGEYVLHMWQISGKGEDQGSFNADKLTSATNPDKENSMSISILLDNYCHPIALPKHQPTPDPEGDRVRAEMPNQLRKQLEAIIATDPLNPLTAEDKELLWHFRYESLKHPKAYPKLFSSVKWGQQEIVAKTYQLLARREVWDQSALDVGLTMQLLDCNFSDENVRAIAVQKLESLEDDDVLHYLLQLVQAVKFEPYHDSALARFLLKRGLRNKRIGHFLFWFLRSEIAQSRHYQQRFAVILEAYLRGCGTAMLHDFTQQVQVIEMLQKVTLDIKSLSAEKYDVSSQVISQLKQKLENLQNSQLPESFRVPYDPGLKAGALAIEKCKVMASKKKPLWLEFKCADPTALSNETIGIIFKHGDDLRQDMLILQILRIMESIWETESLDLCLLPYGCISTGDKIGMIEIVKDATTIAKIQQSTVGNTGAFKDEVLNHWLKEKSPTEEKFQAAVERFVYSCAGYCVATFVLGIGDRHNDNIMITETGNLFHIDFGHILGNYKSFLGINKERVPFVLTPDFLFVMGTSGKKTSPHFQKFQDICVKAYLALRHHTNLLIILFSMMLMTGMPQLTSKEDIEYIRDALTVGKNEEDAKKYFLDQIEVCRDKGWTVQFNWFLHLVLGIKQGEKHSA
Chain of PI3-kinase p110-alpha/p85-alpha (P27986 whole entry, canonical isoform): as the sequence (P27986 whole entry) above
Chain of PI3-kinase p110-alpha/p85-alpha (P42336 whole entry, canonical isoform): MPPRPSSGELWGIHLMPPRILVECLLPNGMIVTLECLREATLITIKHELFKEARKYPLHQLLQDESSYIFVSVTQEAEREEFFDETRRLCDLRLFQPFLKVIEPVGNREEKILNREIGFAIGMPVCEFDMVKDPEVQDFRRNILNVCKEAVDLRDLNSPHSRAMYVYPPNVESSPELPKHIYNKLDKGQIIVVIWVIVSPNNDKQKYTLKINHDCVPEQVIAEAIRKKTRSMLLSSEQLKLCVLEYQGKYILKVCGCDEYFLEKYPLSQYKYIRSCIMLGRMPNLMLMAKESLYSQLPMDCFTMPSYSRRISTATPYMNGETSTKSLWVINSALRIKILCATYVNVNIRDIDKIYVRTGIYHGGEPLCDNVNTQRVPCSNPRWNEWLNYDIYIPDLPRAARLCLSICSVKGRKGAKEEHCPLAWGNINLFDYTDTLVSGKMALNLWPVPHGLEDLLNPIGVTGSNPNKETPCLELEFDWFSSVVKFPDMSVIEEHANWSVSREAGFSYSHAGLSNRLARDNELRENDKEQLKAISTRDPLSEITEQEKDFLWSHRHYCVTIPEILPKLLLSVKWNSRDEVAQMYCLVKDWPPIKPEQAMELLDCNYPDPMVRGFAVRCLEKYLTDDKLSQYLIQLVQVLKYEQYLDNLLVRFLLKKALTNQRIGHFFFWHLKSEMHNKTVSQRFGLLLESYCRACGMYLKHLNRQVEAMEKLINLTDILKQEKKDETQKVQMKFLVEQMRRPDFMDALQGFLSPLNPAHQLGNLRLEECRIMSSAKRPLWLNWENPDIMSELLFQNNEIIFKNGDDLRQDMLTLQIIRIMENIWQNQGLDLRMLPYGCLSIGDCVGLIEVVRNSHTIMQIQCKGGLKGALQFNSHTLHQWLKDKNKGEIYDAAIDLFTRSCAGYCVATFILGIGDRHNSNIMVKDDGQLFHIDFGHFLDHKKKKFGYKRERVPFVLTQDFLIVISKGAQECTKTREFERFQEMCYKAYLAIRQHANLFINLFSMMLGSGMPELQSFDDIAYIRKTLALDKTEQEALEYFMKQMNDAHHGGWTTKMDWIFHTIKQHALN

Structure (SMILES): Fc1ccc2[nH]ccc2c1-c1nc(N2CCOCC2)c2sc(CN3CCN(CC4CC4)CC3)cc2n1
- Ratio IC50 (Homo sapiens [1]): > 72
- Ratio IC50 (Homo sapiens [2]): > 72
- Ratio IC50 (Homo sapiens [3]): > 72
- IC50 [4]: 2300 nM
- IC50 [5]: > 10000 nM
- IC50 (PI3K p110 beta/p85 alpha): 1080 nM

Structure (SMILES): Cc1csc2nc([C@H](C)Nc3ncnc4[nH]cnc34)c(-c3cccc(F)c3)c(=O)n12 [DEZAPELISIB]
- IC50 [5]: 2300 nM
- IC50 (PI3K p110 beta/p85 alpha): 3750 nM

Structure (SMILES): N#Cc1ccc(-c2cnc3ccc(-c4ccc(C(=O)N5CCOCC5)cc4)cn23)cc1 [TINODASERTIB]
- half-life [6]: 25 h

Structure (SMILES): Cc1cc(Nc2cc(N)ncn2)c(=O)n2c1C(=O)NC21CCCCC1.Cl [TOMIVOSERTIB HYDROCHLORIDE]
- inhibition [7]: 85%
- half-life [6]: 11 h

Structure (SMILES): NC(=O)C[C@H]1CCc2sc3ncnc(O[C@H]4CC[C@H](N5CCOCC5)CC4)c3c21
- IC50 [8]: 7.5 nM

Structure (SMILES): CC[C@@H]1[C@H](F)C(=O)N[C@@H]1COc1cccc2cc(C(N)=O)c(OC)cc12
- IC50 [8]: 0.2 nM

Structure (SMILES): CC(C)Oc1ccc(-c2nn([C@@H](C)c3oc4ccc(F)cc4c(=O)c3-c3cccc(F)c3)c3ncnc(N)c23)cc1F [UMBRALISIB]
- IC50 [4]: > 10000 nM
- IC50 [5]: 1400 nM
- IC50 (PI3K p110 beta/p85 alpha): > 10000 nM

Structure (SMILES): NC(=O)c1nc(-c2c(F)cccc2Cl)oc1Nc1ccc(C(=O)N2CCOCC2)cc1
- IC50 [9]: 0.6 nM
- IC50 [10]: 41 nM
- IC50 [11]: 23 nM
